Reference: US9102669B2, “Substituted piperidinyl-pyridazinyl derivatives useful as SCD 1 inhibitors” (Janssen Pharmaceutica NV, priority 2011, dated 2015)
Values joined by “and” are separate entries in the source; they are usually repeats but may differ in a detail not shown here. Identical values can stand only once.

Tests used:
[1] = target: SCD1 (Homo sapiens (Human), UniProt O00767); experiment: SCD1 13C-palmitic acid assay in A431 cells; type: cell-based; conditions: read-out: A431 cells 13C-PA IC50
Sequence of SCD1 (Homo sapiens (Human), UniProt O00767) (O00767 whole entry): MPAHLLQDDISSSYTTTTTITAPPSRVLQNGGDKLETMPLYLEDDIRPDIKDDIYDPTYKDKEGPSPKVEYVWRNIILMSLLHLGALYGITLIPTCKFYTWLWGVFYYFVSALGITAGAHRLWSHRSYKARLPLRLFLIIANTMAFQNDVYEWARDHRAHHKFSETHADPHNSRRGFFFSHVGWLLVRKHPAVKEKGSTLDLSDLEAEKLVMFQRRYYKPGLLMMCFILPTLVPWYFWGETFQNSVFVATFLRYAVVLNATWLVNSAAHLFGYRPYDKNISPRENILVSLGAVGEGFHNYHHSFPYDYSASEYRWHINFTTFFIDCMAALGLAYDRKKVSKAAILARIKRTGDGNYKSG
Protocol: Human epithelial carcinoma A431 cells were seeded at 100,000 cells/well in complete growth medium (DMEM, Cellgro#10-013-CM, 4.5 g/L glucose, 10% FBS) in the presence of 0.05 mg/mL human insulin (Hannas Pharmaceutical Supply Co Inc, Humanlin 100 U/ml, 4 mg/ml) in 96-well tissue culture plate. 24 hr later, the cells were washed extensively with Assay Buffer (DMEM, Cellgro#10-013-CM, 4.5 g/L glucose, supplemented with 0.05 mg/mL Human Insulin and 0.1% Fatty Acid Free BSA). […] The cells were then returned to the tissue culture incubator (37° C. and 5% CO2) for 4 hrs. At the end of incubation, the cells were washed three times with 200 μL/well Hanks buffer (HBSS) and then stored at −20° C. until extraction.
For fatty acid extraction, after thawing out the plates, 40 μL of 1N KOH (containing 5 μM of internal standard 7,7,8,8-D4 palmitate) was added to each well and cell plates were incubated at 37° C. for 30 minutes. […] Acetonitrile (100 μL) was then added to extract fatty acids, followed by centrifugation at 3000 rpm for 10 minutes. 75 μL of extract was then transferred to a new glass vial in a 96-well cluster plate. 5 μL was injected for LC/MS analysis for detection of ^13C-palmitic acid and ^13C-palmitoleic acid. Formation of product ^13C-palmitoleic acid was determined as an index of SCD1 activity.
LC/MS analysis was performed as following. An Agilent 1100 Liquid Chromatographic System (Palo Alto, Calif.) consisting of a binary pump, a degasser and an autosampler was used. Separation of free fatty acids was performed on a Zorbax SB-C8 column (2.1×50 mm, particle size=3.5 μm). An isocratic elution was carried out with 10 mM triethylamine acetate in water: acetonitrile (3:7) at a flow rate of 0.3 mL/min. The column temperature was set at 30° C. and the sample injection volume was 5 μL. The LC run cycle was 4 min. A Micromass triple-quadrupole Quattro Micro mass […] (Waters, Beverly, Mass.) was interfaced with the LC system through a Z-spray electrospray ion source and was operated in the negative ion mode. Nitrogen was used as nebulizing gas, desolvation gas and cone curtain gas and argon was chosen as collision gas. The triple quadrupole MS source parameters were set as follows: capillary voltage, 3200V; cone voltage, 25V; exctractor 2V; source temperature, 120° C.; desolvation temperature, 300° C.; cone gas flow, 50 L/h; and desolvation gas flow, 700 L/h. […] MassLynx software version 4.0 was used for system control and data processing. The signal of U-^13C-palmitoleic acid was normalized to an internal standard.

[2] = target: SCD1 (Rattus norvegicus (Rat), UniProt P07308); experiment: SCD1 enzymatic assay in rat liver microsomes (RLM); type: biochemical; conditions: rat liver microsomes; for inhibition at 1 µM / % Inh.@ 1 μM: 1 μM test compound; for inhibition at 1 µM: read-out: % Inh.@ 1 μM
Sequence of SCD1 (Rattus norvegicus (Rat), UniProt P07308) (P07308 whole entry): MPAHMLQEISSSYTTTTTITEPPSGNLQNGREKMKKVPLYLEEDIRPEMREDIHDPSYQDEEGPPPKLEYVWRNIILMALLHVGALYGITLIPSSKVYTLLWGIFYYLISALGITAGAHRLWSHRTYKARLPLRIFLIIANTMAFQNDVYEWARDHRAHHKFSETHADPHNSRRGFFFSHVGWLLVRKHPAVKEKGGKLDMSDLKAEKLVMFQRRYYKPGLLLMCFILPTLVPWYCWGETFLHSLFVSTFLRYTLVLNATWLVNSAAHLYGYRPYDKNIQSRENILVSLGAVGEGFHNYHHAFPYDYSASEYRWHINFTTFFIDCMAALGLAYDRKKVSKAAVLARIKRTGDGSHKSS
Protocol: Step 1: Preparation of Rat Liver Microsome (RLM):
Sprague Dawley rats from Charles River (200-225 g) underwent 2-cycle of fast-re-feeding (24-hour fast followed by 24-hour feeding with fat-free high carbohydrate diet, Reseach Diet, D00042802). The livers were removed and homogenized 1:4 (w/v) with pre-chilled, homogenizing buffer (10 mM Tris-HCl, 0.25 M sucrose, 1 mM EDTA, pH 7.4, supplemented with protease inhibitor cocktail). The homogenate was spun at 12,000×g for 15 min at 4° C. The supernatant was then re-centrifuged at 100,000×g for 60 min at 4° C. The pellet was re-suspended in 2 ml pre-chilled […] potassium phosphate buffer, pH 7.2, 10 mM EDTA at a concentration of 20 mg/ml. The resulting rat liver microsome (RLM) preparation was stored at −80° C.
Step 2: SCD1 Enzymatic Assay in RLM:
The SCD1 enzymatic assay was done in a volume of 50 μL using 10 μg of RLM (prepared as described above) in a 96-well polypropylene plate (enzyme reaction buffer contains 0.1 M K-Phosphate Buffer, 10 mM ATP, 6 mM MgCl2. 1 mM CoA, 1 mM β-NADH, 1.6 mM L-glutathione, 20 μM Stearoyl-CoA). Stearoyl-[9,10-^3H]-CoA (ARC-0390, 1 mCi/mL, 60 Ci/mmol,) was added at a final concentration of 2 μCi/mL. Test compound was then added to the reaction mixture at the selected concentration. After incubation at room temperature for 2 hours, 5 μL 1 N HCl was added to stop the reaction, followed by addition of 25 μL of 10% charcoal. The reaction mixture was then transferred to 96-well Multiscreen plate (Millipore, Cat#MSFCN6B50). […] The measured cpm values were fitted with Sigmoidal dose-response curve fit with Graphpad Prism.

| Structure (SMILES) | IC50 [1] | inhibition at 1 µM [2] | IC50 [2] | % Inh.@ 1 μM [2] |
| --- | --- | --- | --- | --- |
| Cn1cc(-c2ccc(N3CCC(N4CCc5cc(F)ccc54)CC3)nn2)cn1 [Compound #46, 5-fluoro-1-(1-(6-(1-methyl-1H-pyrazol-4-yl)pyridazin-3-yl)piperidin-4-yl)indoline] | 99 nM | 85% | 165 nM | – |
| OCc1ccc(-c2ccc(N3CCC(N4CCc5ccc(F)cc54)CC3)nn2)cc1 [Compound #51] | 8 nM | 96% | 22 nM | – |
| Cc1ccc(-c2ccc(N3CCC(N4CCc5ccc(F)cc54)CC3)nn2)s1 [Compound #52, 6-fluoro-1-(1-(6-(5-methylthiophen-2-yl)pyridazin-3-yl)piperidin-4-yl)indoline] | 6 nM | 92% | 121 nM | – |
| Fc1ccc2c(c1)N(C1CCN(c3ccc(-c4ccc(C(F)(F)F)cc4)nn3)CC1)CC2 [Compound #54, 6-fluoro-1-(1-(6-(4-(trifluoromethyl)phenyl)pyridazin-3-yl)piperidin-4-yl)indoline] | 54 nM | 85% | 90 nM | – |
| Cc1ccc2c(c1)N(C1CCN(c3ccc(-c4cnn(C)c4)nn3)CC1)CC2 [Compound #57, 6-methyl-1-(1-(6-(1-methyl-1H-pyrazol-4-yl)pyridazin-3-yl)piperidin-4-yl)indoline] | 241 nM | 72% | 286 nM | – |
| O=C(O)c1ccc(-c2ccc(N3CCC(N4CCc5ccc(F)cc54)CC3)nn2)cc1 [Compound #58, 4-(6-(4-(6-fluoroindolin-1-yl)piperidin-1-yl)pyridazin-3-yl)benzoic acid] | 390 nM | 78% | 349 nM | – |
| Cn1cc(-c2ccc(N3CCC(N4CCc5ccc(Cl)cc54)CC3)nn2)cn1 [Compound #59, 6-chloro-1-(1-(6-(1-methyl-1H-pyrazol-4-yl)pyridazin-3-yl)piperidin-4-yl)indoline] | 28 nM | 99% | 35 nM | – |
| COc1ccc2c(c1)N(C1CCN(c3ccc(-c4cnn(C)c4)nn3)CC1)CC2 [Compound #62, 6-methoxy-1-(1-(6-(1-methyl-1H-pyrazol-4-yl)pyridazin-3-yl)piperidin-4-yl)indoline] | 407 nM | 79% | 317 nM | – |
| CNC(=O)Cn1cc(-c2ccc(N3CCC(N4CCc5ccc(F)cc54)CC3)nn2)cn1 [Compound #64, 2-(4-(6-(4-(6-fluoroindolin-1-yl)piperidin-1-yl)pyridazin-3-yl)-1H-pyrazol-1-yl)-N-methylacetamide] | 12 nM | 102% | 15 nM | – |
| Cn1cc(-c2ccc(N3CCC(N4CCc5cc(Cl)ccc54)CC3)nn2)cn1 [Compound #65, 5-chloro-1-(1-(6-(1-methyl-1H-pyrazol-4-yl)pyridazin-3-yl)piperidin-4-yl)indoline] | 218 nM | 83% | 181 nM | – |
| CCOCc1cnn(-c2ccc(N3CCC(N4CCc5ccc(F)cc54)CC3)nn2)c1 [Compound #72, 1-(1-(6-(4-(ethoxymethyl)-1H-pyrazol-1-yl)pyridazin-3-yl)piperidin-4-yl)-6-fluoroindoline] | 9 nM | 99% | 8 nM | – |
| Fc1ccc2c(c1)N(C1CCN(c3ccc(-c4ccc(C(F)(F)F)nc4)nn3)CC1)CC2 [Compound #76, 6-fluoro-1-(1-(6-(6-(trifluoromethyl)pyridin-3-yl)pyridazin-3-yl)piperidin-4-yl)indoline] | 14 nM | 97% | 16 nM | – |
| CCOCCn1cc(-c2ccc(N3CCC(N4CCc5ccc(F)cc54)CC3)nn2)cn1 [Compound #78, 1-(1-(6-(1-(2-ethoxyethyl)-1H-pyrazol-4-yl)pyridazin-3-yl)piperidin-4-yl)-6-fluoroindoline] | 41 nM | 99% | 12 nM | – |
| CCCn1cc(-c2ccc(N3CCC(N4CCc5ccc(F)cc54)CC3)nn2)cn1 [Compound #79, 6-fluoro-1-(1-(6-(1-propyl-1H-pyrazol-4-yl)pyridazin-3-yl)piperidin-4-yl)indoline] | 72 nM | 97% | 22 nM | – |
| CCn1cc(-c2ccc(N3CCC(c4noc5ccc(F)cc45)CC3)nn2)cn1 [compound 13, 3-(1-(6-(1-ethyl-1H-pyrazol-4-yl)pyridazin-3-yl)piperidin-4-yl)-5-fiuorobenzo[d]isoxazole] | 985 nM | 98% | 70 nM | – |
| Cc1nnc(-c2ccc(N3CCC(c4noc5ccc(F)cc45)CC3)nn2)o1 [compound 18, 5-fluoro-3-(1-(6-(5-methyl-1,3,4-oxadiazol-2-yl)pyridazin-3-yl)piperidin-4-yl)benzo[d]isoxazole] | 248 nM | – | 315 nM | – |
| OCc1nnc(-c2ccc(N3CCC(c4noc5ccc(F)cc45)CC3)nn2)o1 [compound 20, (5-(6-(4-(5-fluorobenzo[d]isoxazol-3-yl)piperidin-1-yl)pyridazin-3-yl)-1,3,4-oxadiazol-2-yl)methanol] | 11 nM | 96% | 16 nM and 14 nM | 96, 96% |
| Cc1csc(-c2ccc(N3CCC(c4noc5ccc(F)cc45)CC3)nn2)n1 [compound 23, 5-fluoro-3-(1-(6-(4-methylthiazol-2-yl)pyridazin-3-yl)piperidin-4-yl)benzo[d]isoxazoie] | 3 nM | 100% | 21 nM | – |
| Cc1ccc(-c2ccc(N3CCC(c4noc5ccc(F)cc45)CC3)nn2)cn1 [compound 24, 5-fluoro-3-(1-(6-(6-methylpyridin-3-yl)pyridazin-3-yl)piperidin-4-yl)benzo[d]isoxazote] | 9 nM and 6 nM | 98% | 11 nM and 4 nM | 94% |
| Cc1cc(-c2ccc(N3CCC(c4noc5ccc(F)cc45)CC3)nn2)ccn1 [compound 25, 5-fluoro-3-(1-(6-(2-methylpyridin-4-yl)pyridazin-3-yl)piperidin-4-yl)benzo[d]isoxazole] | 17 nM | 62% | 171 nM | – |
| Fc1ccc2onc(C3CCN(c4ccc(-c5cn[nH]c5)nn4)CC3)c2c1 [compound 26, 3-(1-(6-(1H-pyrazol-4-yl)pyridazin-3-yl)piperidin-4-yl)-5-fluorobenzo[d]isoxazole] | 112 nM | 86% | 111 nM | – |
| Cc1csc(-c2ccc(N3CCC(c4noc5ccc(F)cc45)CC3)nn2)c1 [compound 27, 5-fluoro-3-(1-(6-(4-methylthiophen-2-yl)pyridazin-3-yl)piperidin-4-yl)benzo[d]isoxazole] | 4 nM and 3 nM | 75% | 114 nM and 122 nM | 55% |
| Cc1cnc(-c2ccc(N3CCC(c4noc5ccc(F)cc45)CC3)nn2)s1 [compound 28, 5-fluoro-3-(1-(6-(5-methylthiazol-2-yl)pyridazin-3-yl)piperidin-4-yl)benzo[d]isoxazole] | 9 nM and 16 nM | 94% | 9 nM | – |
